Laboratory results published in patent US11103562B2, “Composition comprising alkaline phosphatase for use in the treatment of arthritides” (AMRIF BV, priority 2017, dated 2021).
“Also recorded” adds a separate entry of the source.

Legend:
[1] = system: ED1+ and ED2+ synovial macrophages; experiment: Synovial macrophage infiltration (ED1/ED2 immunohistochemistry) in knees of rats with mBSA antigen-induced arthritis; type: in vivo, rat
Experimental: (§1) Experiments were performed using a rat model for RA as published by Chandruputla et al. (BioMed Int, 2015) to show the effects of recombinant human alkaline phosphatase (hRESCAP) on RA. hRESCAP was compared with MTX used as a positive control. The antigen-induced rat model uses two subcutaneous immunizations with a mixture of methylated bovine serum albumin (mBSA), CFA (complete Freund's adjuvant antigen) and CBP (custom Bordetella pertussis antigen) and intra-articular injections of mBSA on one side knee and saline (negative control) on the counter knee. Immunohistochemical (IHC) analysis specifically focussed on infiltration with macrophages and knee swelling is followed over time after therapeutic treatment with MTX, or hRESCAP.
(§2) In the rat model, RA is induced in the right knee (RA knee), the contralateral left knee serves as a internal control (control knee). The model allows various options for therapeutic interventions, either before intra-articular injections or during boosts injections with mBSA. Two hours prior to AP administration, rats received a dose of levamisole (50 mg/kg, s.c.). For comparison, arthritic rats received treatment with methotrexate (1 mg/kg, i.p.).
At the end of the experiment, rats were sacrificed and knees were decalcified and processed for IHC analysis of synovial macrophage infiltration, including 2 rat macrophage antibodies; ED1 (homolog of human CD68) and ED2 (homolog of human CD163, a proposed marker for human M2 anti-inflammatory macrophages). IHC analysis of ED1 and ED2 macrophages was performed in multiple quadrants of synovial tissue, as described by Chandruputla et al (BioMed Int, 2015). Macrophage counting included synovial lining layer (SL 1-10) and synovial sublining layers (SL 1-20).
(§3) All rats (except healthy) were immunized and arthritis was induced via 1× or 4× intra-articular (i.a) mBSA injections, 4 or 5 days apart in the arthritic (right) knee, the contralateral (left, non-arthritic) knee serving as control knee. For therapeutic interventions, AP (human recombinant placenta AP, TNO, Zeist, The Netherlands) was administered subcutaneously (s.c.) at a dose of 700 U/kg (≈200 μg), MTX (VU University Medical Centers' Pharmacy) was administered intra-peritoneal (i.p.) at two dosages: 0.3 mg/kg (low dose) and 1.0 mg/kg (high dose). The rats were divided in 8 groups, based on different treatments and treatment schedules. In a prophylactic setting, two rats received AP twice prior to intra-articular (i.a.) arthritis induction and four rats received AP twice prior to intra-articular and 4× PBS in between i.a. injections. In the treatment groups, arthritic rats were administered AP twice or 4× after arthritis induction, either as standalone therapy or in combination with low or high dose MTX. Control rats received 500 μL of PBS (i.p.). […] At the end of study, all rats were sacrificed and tissues were excised for further processing and various analyses.
The arthritic and contralateral knees from all rats were dissected in toto and fixed for 7 days at 4° C. in 10% freshly made paraformaldehyde in PBS with 2% sucrose (pH=7.3) prior to decalcification in osteosoft (101728, Merck, Germany) for ˜2.5 weeks at room temperature. Thereafter, knees were embedded in paraffin. Sections of 5 μm were cut through the centre of the joint in longitudinal direction and stained with haematoxylin and eosin (HE) to assess the degree of inflammation in synovial tissue. Liver and spleen sections from all rats were dissected and fixed in 4% paraformaldehyde for 24 h before embedding in paraffin. Sections of 5 μm were cut and stained initially with HE and then for macrophages Staining for macrophages with ED1 (homologous to human CD68), and ED2 (homologous to human CD163, a marker for M2 anti-inflammatory macrophages), or isotype control antibody was performed. Images were captured using a Leica 4000B microscope and Leica digital camera DC500 (Microsystems B. V. Rijswijk, The Netherlands). […]

[2] = system: arthritic rats; experiment: Knee swelling in rats with mBSA antigen-induced arthritis; type: in vivo, rat
Experimental: as §1, §2, §3

[3] = Tolerability of therapeutic interventions in arthritic rats; type: in vivo
Experimental: as §3

[4] = system: macrophages; conditions: rat, in vivo
Experimental: At the end of the treatment period, arthritic rats receiving 4× AP, 4× AP/low dose MTX, 4× AP/high dose MTX treatment, and untreated rats, were administered with [^18F]fluoro-PEG-folate tracer. Sixty minutes after tracer administration, rats were sacrificed. Low and high dose MTX treated arthritic rats were sacrificed without tracer administration. Upon sacrificing, all rats were excised and knees, blood and various internal organs were collected, rinsed, dipped dry, weighed and the amount of radioactivity determined using an LKB 1282 Compugamma CS gamma counter (LKB, Wallac, Turku, Finland). Results for tracer uptake in the various tissues were expressed as percentage of the injected dose per gram tissue (%ID/g).

[5] = cited from earlier work; for plasma residence time: in vivo

Molecule: CN(Cc1cnc2nc(N)nc(N)c2n1)c1ccc(C(=O)N[C@@H](CCC(=O)O)C(=O)O)cc1 [MTX, Methotrexate, reference compound]
- effect of the two MTX doses on the number of ED1 macrophages in the arthritic knee ([1]; MTX 0.3 mg/kg versus 1.0 mg/kg): identical effect
- ED1+ synovial macrophage infiltration in arthritic knee (in words) ([1]; therapeutic treatment, 4× after first i.a. and in between boosts, AP 700 U/kg, MTX 1 mg/kg): even more reduced macrophage ED1+ counts; also recorded: very much reduced
- swelling of the mBSA-injected right knee ([2]; prophylactic and therapeutic AP treatment or MTX treatment, versus positive control): Reduced swelling
- swelling of the non-treated left knee ([2]; versus positive control treatment): swelling is reduced
- changes in body weight [3]: nor were significant changes in the body weight observed

Molecule: [^18F]fluoro-PEG-folate [reference compound]
- clearance of the tracer from plasma [4]: rapidly cleared from plasma

B1: intestinal isoenzyme: intestinal alkaline phosphatase isoenzyme, tissue specific ectophosphatase (protein, UniProt P09923 20-503, looked up)
Intestinal-type alkaline …: VIPAEEENPAFWNRQAAEALDAAKKLQPIQKVAKNLILFLGDGLGVPTVTATRILKGQKNGKLGPETPLAMDRFPYLALSKTYNVDRQVPDSAATATAYLCGVKANFQTIGLSAAARFNQCNTTRGNEVISVMNRAKQAGKSVGVVTTTRVQHASPAGTYAHTVNRNWYSDADMPASARQEGCQDIATQLISNMDIDVILGGGRKYMFPMGTPDPEYPADASQNGIRLDGKNLVQEWLAKHQGAWYVWNRTELMQASLDQSVTHLMGLFEPGDTKYEIHRDPTLDPSLMEMTEAALRLLSRNPRGFYLFVEGGRIDHGHHEGVAYQALTEAVMFDDAIERAGQLTSEEDTLTLVTADHSHVFSFGGYTLRGSSIFGLAPSKAQDSKAYTSILYGNGPGYVFNSGVRPDVNESESGSPDYQQQAAVPLSSETHGGEDVAVFARGPQAHLVHGVQEQSFVAHVMAFAACLEPYTACDLAPPACTTD
- plasma residence time [5]: short plasma residence time

B2: placental ALP: human placental alkaline phosphatase isoenzyme, fully glycosylated tissue specific ectophosphatase (native or recombinant) (protein, UniProt P05187 23-506, looked up)
Alkaline phosphatase, …: IIPVEEENPDFWNREAAEALGAAKKLQPAQTAAKNLIIFLGDGMGVSTVTAARILKGQKKDKLGPEIPLAMDRFPYVALSKTYNVDKHVPDSGATATAYLCGVKGNFQTIGLSAAARFNQCNTTRGNEVISVMNRAKKAGKSVGVVTTTRVQHASPAGTYAHTVNRNWYSDADVPASARQEGCQDIATQLISNMDIDVILGGGRKYMFRMGTPDPEYPDDYSQGGTRLDGKNLVQEWLAKRQGARYVWNRTELMQASLDPSVTHLMGLFEPGDMKYEIHRDSTLDPSLMEMTEAALRLLSRNPRGFFLFVEGGRIDHGHHESRAYRALTETIMFDDAIERAGQLTSEEDTLSLVTADHSHVFSFGGYPLRGSSIFGLAPGKARDRKAYTVLLYGNGPGYVLKDGARPDVTESESGSPEYRQQSAVPLDEETHAGEDVAVFARGPQAHLVHGVQEQTFIAHVMAFAACLEPYTACDLAPPAGTTD
- plasma residence time [5]: 6 to 7 days
- half-life (T1/2) of clearance out of circulation ([5]; pregnant women): 170 h
